Source: patent US20230404075A1, “RHIZOBIA SYMBIOSIS PROMOTING AGENT AND SYMBIOSIS PROMOTION METHOD” (TOYOTA JIDOSHA KABUSHIKI KAISHA, priority 2020, published 2023)

What was measured:
[1] = tested on: Miyakogusa (Lotus japonicus); test: Root nodule formation (number of infection threads, number of root nodules) in Miyakogusa inoculated with DsRED gene-bearing rhizobium; type: in vivo; settings: final concentration 10 μM or 100 μM, vs Non-addition (control)
Description: First, caffeic acid (Caffeic Acid, CAS RN: 331-39-5 C0002, Tokyo Chemical Industry Co., Ltd.) was dissolved in ethanol, thereby preparing a 100 mM stock solution. Next, about 300 mL of vermiculite was added to pots, entirely moistened with water, and then sterilized in an autoclave. Miyakogusa (Lotus japonicus) three to four days after sowing was transplanted into the pots, and 50 mL of B&D liquid medium (Broughton and Dilworth, 1971) containing a DsRED gene-bearing rhizobium (OD600=[…]; 1 mL) and caffeic acid (final concentration: 10 μM or 100 μM) was added.
Plants inoculated with the rhizobium were grown in an incubator (26° C.; 16 hr light/8 hr dark). The plants were dug up from the soil after one week and two weeks, and the number of infection threads and the number of root nodules were counted under a fluorescent stereomicroscope.
In FIG. 1, error bars in the graphs represent standard errors, and asterisks (*) indicate data with a significant difference (Dunnett method: p<0.05; n=10) compared to Non-addition (control).

[2] = tested on: soybean (Glycine max cv. Enrei); test: Biomass production and root nodule formation in soybean inoculated with rhizobia (Bradyrhizobium japonicum); type: in vivo; settings: 100 μM, vs Non-addition (control), Dunnett p<0.01, n=8
Description: In this Example, first, seeds of the soybean (Glycine max cv. Enrei) were placed on wet Kimwipes® for three to four days to germinate and then transferred to pots containing vermiculite (about 1.1 L) and grown for about three days in a plant incubator (28° C.; 16 hr light/8 hr dark). Next, a non-addition plot was prepared by adding rhizobia (Bradyrhizobium japonicum; OD600=0.1; 1 mL) to 50 ml of B&D medium. An addition plot was prepared by adding ferulic acid (final concentration: 100 μM) to 50 mL of B&D medium containing rhizobia. They were inoculated into the individual soybean plants. Soybean plants grown in the incubator for one week and two weeks were dug up from the pots, and their growth (aerial part length, underground part length, number of leaves) and number of root nodules were measured.
In FIGS. 4 and 5, error bars in the graphs represent standard errors, and asterisks (**) indicate data with a significant difference (Dunnett method: p<0.01; n=8) compared to Non-addition (control).

[3] = after two weeks, Dunnett p<0.05, n=10

SMILES | number of root nodules ([1]; after one week) | number of infection threads ([1]; after two weeks) | number of infection threads ([1]; after one week, Dunnett p<0.05, n=10) | number of root nodules [1, 3] | number of root nodules ([2]; soybean grown for one week) | aerial part length ([2]; soybean grown for two weeks) | number of root nodules ([2]; soybean grown for two weeks)
COc1cc(/C=C/C(=O)O)cc(OC)c1O [sinapinic acid, 3,5-Dimethoxy-4-hydroxycinnamic Acid] | significant increase | significant increase |  |  |  |  | 
O=C(O)/C=C/c1ccc(O)c(O)c1 [caffeic acid] |  |  | significant increase | tendency for the number of root nodules to increase |  |  | 
COc1cc(/C=C/C(=O)O)ccc1O [ferulic acid, 3-methoxy-4-hydroxycinnamic acid] |  | significant increases |  | significant increases | significantly increased | significantly increased | significantly increased
